Patent US20260022142A1, “MACROCYCLIC IMMUNOMODULATORS” (Bristol-Myers Squibb Company, priority 2022, published 2026)
Bridge positions count the residues as written; N and C are the ends. Square brackets hold non-standard residues; d marks the D form. Peptide text beside a SMILES is read from it. * marks the point of attachment. ξ: configuration not given here. Phe(4-COOH) = N[C@@H](Cc1ccc(C(=O)O)cc1)C(=O)O; Bip = N[C@@H](Cc1ccc(-c2ccccc2)cc1)C(=O)O; Phe(3-Me) = Cc1cccc(C[C@H](N)C(=O)O)c1; Cha = N[C@@H](CC1CCCCC1)C(=O)O; Carboxymethyl = O=C(O)C*; Orn = NCCC[C@H](N)C(=O)O; Aun = NCCCCCCCCCCC(=O)O; Dab = NCC[C@H](N)C(=O)O; Dap = NC[C@H](N)C(=O)O; AEEA = NCCOCCOCC(=O)O; ξDab = NCCC(N)C(=O)O

Target: T1, PD-1/PD-L1 interaction (PE-labeled human PD-L1-Ig binding to Jurkat cell line over-expressing human PD-1) (Homo sapiens, UniProt Q15116)
T1 construct: expressed in transfected cells; host or cells: Jurkat
T1 sequence (Q15116 25-288): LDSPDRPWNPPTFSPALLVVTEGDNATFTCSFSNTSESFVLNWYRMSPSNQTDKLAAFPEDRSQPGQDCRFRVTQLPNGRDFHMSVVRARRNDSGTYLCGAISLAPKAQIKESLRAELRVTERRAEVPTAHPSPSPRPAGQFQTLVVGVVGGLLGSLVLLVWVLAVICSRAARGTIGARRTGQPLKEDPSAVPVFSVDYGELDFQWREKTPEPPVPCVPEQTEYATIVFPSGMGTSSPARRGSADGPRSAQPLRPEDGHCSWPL
Experiment: Jurkat-PD-1 Cell Binding High-Content Screening Assay (CBA)
Format: cell-based
Conditions: Jurkat cell line over-expressing human PD-1; PE-labeled PD-L1-Ig 20 nM final; read-out: Jurkat hPD1-PDL1 IC50
How it was run: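 Human PD-L1-Ig carrying a covalent PE label on its Ig tag serves as the probe, applied at 20 nM final to compound-treated (2 h, 37° C) Jurkat-hPD-1 cells in medium with 10% fetal calf serum. After one hour, fixation and nuclear staining precede high-content image analysis.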

Compound	IC50
CC(C)C[C@H]1NC(=O)[C@H](CCCN)NC(=O)[C@H](Cc2ccc(O)cc2)NC(=O)[C@H](Cc2ccc(-c3ccccc3)cc2)NC(=O)[C@H](Cc2ccc(O)cc2)NC(=O)[C@H](Cc2c[nH]c3ccccc23)NC(=O)[C@H](CC(=O)O)NC(=O)[C@H](Cc2ccc(OCC(=O)O)cc2)NC(=O)[C@H](Cc2ccc(OCC(=O)O)cc2)NC(=O)CSC[C@@H](C(=O)N[C@@H](CCN)C(=O)NCCOCCOCC(=O)NCCCCCCCCCCC(=O)O)NC(=O)[C@H](CCCNC(=N)N)NC(=O)[C@H](Cc2ccc(O)cc2)NC(=O)[C@H](CC2CCCCC2)NC(=O)[C@H](CCN)NC1=O [Compound 2502] ({CH2CO}-Y(Carboxymethyl)Y(Carboxymethyl)DWY[Bip]Y[Orn][dL][Dab][Cha]YRC[Dab][AEEA][Aun]-OH; thioether N-14)	21.2 nM
CC(C)C[C@H]1NC(=O)[C@H](CCCN)NC(=O)[C@H](Cc2ccc(O)cc2)NC(=O)[C@H](Cc2ccc(-c3ccccc3)cc2)NC(=O)[C@H](Cc2ccc(O)cc2)NC(=O)[C@H](Cc2c[nH]c3ccccc23)NC(=O)[C@H](CC(=O)O)NC(=O)[C@H](Cc2ccc(OCC(=O)O)cc2)NC(=O)[C@H](CN)NC(=O)CSC[C@@H](C(=O)N[C@@H](CCN)C(=O)NCCOCCOCC(=O)NCCCCCCCCCCC(=O)O)NC(=O)[C@H](CCCCN)NC(=O)[C@H](Cc2ccc(O)cc2)NC(=O)[C@H](CC2CCCCC2)NC(=O)[C@H](CCN)NC1=O [Compound 2503] ({CH2CO}-[Dap]Y(Carboxymethyl)DWY[Bip]Y[Orn][dL][Dab][Cha]YKC[Dab][AEEA][Aun]-OH; thioether N-14)	39.9 nM
Cc1cccc(C[C@@H]2NC(=O)[C@H](CC(=O)O)NC(=O)[C@H](Cc3ccc(OCC(=O)O)cc3)NC(=O)[C@H](CN)NC(=O)CSC[C@@H](C(=O)N[C@@H](CCN)C(=O)NCCOCCOCC(=O)NCCCCCCCCCCC(=O)O)NC(=O)[C@H](CN)NC(=O)[C@H](Cc3ccc(O)cc3)NC(=O)[C@H](CC3CCCCC3)NC(=O)[C@H](CCN)NC(=O)[C@@H](CC(C)C)NC(=O)[C@H](CCCN)NC(=O)[C@H](Cc3ccc(O)cc3)NC(=O)[C@H](Cc3ccc(-c4ccccc4)cc3)NC(=O)[C@H](Cc3ccc(O)cc3)NC2=O)c1 [Compound 2504] ({CH2CO}-[Dap]Y(Carboxymethyl)D[Phe(3-Me)]Y[Bip]Y[Orn][dL][Dab][Cha]Y[Dap]C[Dab][AEEA][Aun]-OH; thioether N-14)	37.4 nM
Cc1cccc(C[C@@H]2NC(=O)[C@H](CC(=O)O)NC(=O)[C@H](Cc3ccc(OCC(=O)O)cc3)NC(=O)[C@H](CN)NC(=O)CSC[C@@H](C(=O)N[C@@H](CCN)C(=O)NCCOCCOCC(=O)NCCCCCCCCCCC(=O)O)NC(=O)[C@H](CCCN)NC(=O)[C@H](Cc3ccc(O)cc3)NC(=O)[C@H](CC3CCCCC3)NC(=O)[C@H](CCN)NC(=O)[C@@H](CC(C)C)NC(=O)[C@H](CCCN)NC(=O)[C@H](Cc3ccc(O)cc3)NC(=O)[C@H](Cc3ccc(-c4ccccc4)cc3)NC(=O)[C@H](Cc3ccc(O)cc3)NC2=O)c1 [Compound 2505] ({CH2CO}-[Dap]Y(Carboxymethyl)D[Phe(3-Me)]Y[Bip]Y[Orn][dL][Dab][Cha]Y[Orn]C[Dab][AEEA][Aun]-OH; thioether N-14)	20.9 nM
Cc1cccc(C[C@@H]2NC(=O)[C@H](CC(=O)O)NC(=O)[C@H](Cc3ccc(OCC(=O)O)cc3)NC(=O)[C@H](CN)NC(=O)CSC[C@@H](C(=O)N[C@@H](CCN)C(=O)NCCOCCOCC(=O)NCCCCCCCCCCC(=O)O)NC(=O)[C@H](CCCNC(=N)N)NC(=O)[C@H](Cc3ccc(O)cc3)NC(=O)[C@H](CC3CCCCC3)NC(=O)[C@H](CCN)NC(=O)[C@@H](CC(C)C)NC(=O)[C@H](CCCN)NC(=O)[C@H](Cc3ccc(O)cc3)NC(=O)[C@H](Cc3ccc(-c4ccccc4)cc3)NC(=O)[C@H](Cc3ccc(O)cc3)NC2=O)c1 [Compound 2506] ({CH2CO}-[Dap]Y(Carboxymethyl)D[Phe(3-Me)]Y[Bip]Y[Orn][dL][Dab][Cha]YRC[Dab][AEEA][Aun]-OH; thioether N-14)	32.4 nM
CC(C)C[C@H]1NC(=O)[C@H](CCCN)NC(=O)[C@H](Cc2ccc(O)cc2)NC(=O)[C@H](Cc2ccc(-c3ccccc3)cc2)NC(=O)[C@H](Cc2ccc(O)cc2)NC(=O)[C@H](Cc2c[nH]c3ccccc23)NC(=O)[C@H](CC(=O)O)NC(=O)[C@H](Cc2ccc(C(=O)O)cc2)NC(=O)[C@H](Cc2ccc(OCC(=O)O)cc2)NC(=O)CSC[C@@H](C(=O)N[C@@H](CCN)C(=O)NCCCCCCCCCCC(=O)O)NC(=O)[C@H](CCCCN)NC(=O)[C@H](Cc2ccc(O)cc2)NC(=O)[C@H](CC2CCCCC2)NC(=O)[C@H](CCN)NC1=O [Compound 2507] ({CH2CO}-Y(Carboxymethyl)[Phe(4-COOH)]DWY[Bip]Y[Orn][dL][Dab][Cha]YKC[Dab][Aun]-OH; thioether N-14)	72.1 nM
CC(C)C[C@H]1NC(=O)[C@H](CCCN)NC(=O)[C@H](Cc2ccc(O)cc2)NC(=O)[C@H](Cc2ccc(-c3ccccc3)cc2)NC(=O)[C@H](Cc2ccc(O)cc2)NC(=O)[C@H](Cc2c[nH]c3ccccc23)NC(=O)[C@H](CC(=O)O)NC(=O)[C@H](Cc2ccc(OCC(=O)O)cc2)NC(=O)[C@H](Cc2ccc(OCC(=O)O)cc2)NC(=O)CSC[C@@H](C(=O)NC(CCN)C(=O)NCCCCCCCCCCC(=O)O)NC(=O)[C@H](CCCNC(=N)N)NC(=O)[C@H](Cc2ccc(O)cc2)NC(=O)[C@H](CC2CCCCC2)NC(=O)[C@H](CCN)NC1=O (stereo partly drawn) [Compound 2508] ({CH2CO}-Y(Carboxymethyl)Y(Carboxymethyl)DWY[Bip]Y[Orn][dL][Dab][Cha]YRC[ξDab][Aun]-OH; thioether N-14)	132 nM
CC(C)C[C@H]1NC(=O)[C@H](CCCN)NC(=O)[C@H](Cc2ccc(O)cc2)NC(=O)[C@H](Cc2ccc(-c3ccccc3)cc2)NC(=O)[C@H](Cc2ccc(O)cc2)NC(=O)[C@H](Cc2c[nH]c3ccccc23)NC(=O)[C@H](CC(=O)O)NC(=O)[C@H](Cc2ccc(OCC(=O)O)cc2)NC(=O)[C@H](CN)NC(=O)CSC[C@@H](C(=O)N[C@@H](CCN)C(=O)NCCCCCCCCCCC(=O)O)NC(=O)[C@H](CCCCN)NC(=O)[C@H](Cc2ccc(O)cc2)NC(=O)[C@H](CC2CCCCC2)NC(=O)[C@H](CCN)NC1=O [Compound 2509] ({CH2CO}-[Dap]Y(Carboxymethyl)DWY[Bip]Y[Orn][dL][Dab][Cha]YKC[Dab][Aun]-OH; thioether N-14)	59.8 nM
Cc1cccc(C[C@@H]2NC(=O)[C@H](CC(=O)O)NC(=O)[C@H](Cc3ccc(OCC(=O)O)cc3)NC(=O)[C@H](CN)NC(=O)CSC[C@@H](C(=O)N[C@@H](CCN)C(=O)NCCCCCCCCCCC(=O)O)NC(=O)[C@H](CN)NC(=O)[C@H](Cc3ccc(O)cc3)NC(=O)[C@H](CC3CCCCC3)NC(=O)[C@H](CCN)NC(=O)[C@@H](CC(C)C)NC(=O)[C@H](CCCN)NC(=O)[C@H](Cc3ccc(O)cc3)NC(=O)[C@H](Cc3ccc(-c4ccccc4)cc3)NC(=O)[C@H](Cc3ccc(O)cc3)NC2=O)c1 [Compound 2510] ({CH2CO}-[Dap]Y(Carboxymethyl)D[Phe(3-Me)]Y[Bip]Y[Orn][dL][Dab][Cha]Y[Dap]C[Dab][Aun]-OH; thioether N-14)	65 nM
Cc1cccc(C[C@@H]2NC(=O)[C@H](CC(=O)O)NC(=O)[C@H](Cc3ccc(OCC(=O)O)cc3)NC(=O)[C@H](CN)NC(=O)CSC[C@@H](C(=O)N[C@@H](CCN)C(=O)NCCCCCCCCCCC(=O)O)NC(=O)[C@H](CCCN)NC(=O)[C@H](Cc3ccc(O)cc3)NC(=O)[C@H](CC3CCCCC3)NC(=O)[C@H](CCN)NC(=O)[C@@H](CC(C)C)NC(=O)[C@H](CCCN)NC(=O)[C@H](Cc3ccc(O)cc3)NC(=O)[C@H](Cc3ccc(-c4ccccc4)cc3)NC(=O)[C@H](Cc3ccc(O)cc3)NC2=O)c1 [Compound 2511] ({CH2CO}-[Dap]Y(Carboxymethyl)D[Phe(3-Me)]Y[Bip]Y[Orn][dL][Dab][Cha]Y[Orn]C[Dab][Aun]-OH; thioether N-14)	50.1 nM
Cc1cccc(C[C@@H]2NC(=O)[C@H](CC(=O)O)NC(=O)[C@H](Cc3ccc(OCC(=O)O)cc3)NC(=O)[C@H](CN)NC(=O)CSC[C@@H](C(=O)N[C@@H](CCN)C(=O)NCCCCCCCCCCC(=O)O)NC(=O)[C@H](CCCNC(=N)N)NC(=O)[C@H](Cc3ccc(O)cc3)NC(=O)[C@H](CC3CCCCC3)NC(=O)[C@H](CCN)NC(=O)[C@@H](CC(C)C)NC(=O)[C@H](CCCN)NC(=O)[C@H](Cc3ccc(O)cc3)NC(=O)[C@H](Cc3ccc(-c4ccccc4)cc3)NC(=O)[C@H](Cc3ccc(O)cc3)NC2=O)c1 [Compound 2512] ({CH2CO}-[Dap]Y(Carboxymethyl)D[Phe(3-Me)]Y[Bip]Y[Orn][dL][Dab][Cha]YRC[Dab][Aun]-OH; thioether N-14)	33.4 nM
CC(C)C[C@H]1NC(=O)[C@H](CCCN)NC(=O)[C@H](Cc2ccc(O)cc2)NC(=O)[C@H](Cc2ccc(-c3ccccc3)cc2)NC(=O)[C@H](Cc2ccc(O)cc2)NC(=O)[C@H](Cc2c[nH]c3ccccc23)NC(=O)[C@H](CC(=O)O)NC(=O)[C@H](Cc2ccc(OCC(=O)O)cc2)NC(=O)[C@H](Cc2ccc(OCC(=O)O)cc2)NC(=O)CSC[C@@H](C(=O)N[C@@H](CCN)C(=O)NCCCCCCCCCCC(=O)O)NC(=O)[C@H](CCCN)NC(=O)[C@H](Cc2ccc(O)cc2)NC(=O)[C@H](CC2CCCCC2)NC(=O)[C@H](CCN)NC1=O [Compound 2513] ({CH2CO}-Y(Carboxymethyl)Y(Carboxymethyl)DWY[Bip]Y[Orn][dL][Dab][Cha]Y[Orn]C[Dab][Aun]-OH; thioether N-14)	81.3 nM
CC(C)C[C@H]1NC(=O)[C@H](CCCN)NC(=O)[C@H](Cc2ccc(O)cc2)NC(=O)[C@H](Cc2ccc(-c3ccccc3)cc2)NC(=O)[C@H](Cc2ccc(O)cc2)NC(=O)[C@H](Cc2c[nH]c3ccccc23)NC(=O)[C@H](CC(=O)O)NC(=O)[C@H](Cc2ccc(OCC(=O)O)cc2)NC(=O)[C@H](Cc2ccc(OCC(=O)O)cc2)NC(=O)CSC[C@@H](C(=O)N[C@@H](CCN)C(=O)NCCCCCCCCCCC(=O)O)NC(=O)[C@H](CN)NC(=O)[C@H](Cc2ccc(O)cc2)NC(=O)[C@H](CC2CCCCC2)NC(=O)[C@H](CCN)NC1=O [Compound 2514] ({CH2CO}-Y(Carboxymethyl)Y(Carboxymethyl)DWY[Bip]Y[Orn][dL][Dab][Cha]Y[Dap]C[Dab][Aun]-OH; thioether N-14)	49.7 nM
